According to patent US20220249592A1, “MUSCLE QUALITY IMPROVEMENT AGENT” (AJINOMOTO CO., INC., priority 2019, published 2022):
*1 amine or outer side, *2 acyl side, *3 side chain or, on linkers, in order; H or OH if unused. Where a SMILES comes first, the peptide text is derived from it. γGlu = O=C(O)[C@H](CCC(=O)[*:2])N[*:1]

Tests used:
[1] = tested on: mouse-derived muscle cell line C2C12; assay: Muscle insulin signal (phosphorylated Akt/total Akt phosphorylation index) in C2C12 myotube cells exposed to palmitic acid (FFA); assay type: cell-based; conditions: for insulin signal that declined due to FFA: 500 μM
Procedure: Muscle anabolic signal was monitored by insulin signal, and the action of γ-glutamyl peptide on the decline of insulin signal was evaluated. As the γ-glutamyl peptide, the actions of γ-L-glutamyl-L-valine (γEV), γ-L-glutamyl-L-cysteine (γEC), and γ-L-glutamyl-L-valylglycine (γEVG) were evaluated.
The evaluation was performed using an evaluation system in which exposure of the mouse-derived muscle cell line C2C12 to saturated fatty acid results in a decline in insulin signal, as described below.
Using mouse C3H skeletal muscle myoblast cell line (C2C12 cell) (DS Pharma Biomedical Co., Ltd.), the evaluation was performed.
Induction of differentiation into myotube cells (Myotubes) was performed using cells with myoblast passage number of 12 to 18. Myoblasts were seeded in a 12-well (diameter=3 cm) plate at 0.3×10^5 to 0.5×10^5 cells/well. After confirmation that the cell proliferation state reached 90% confluent, the medium was replaced with DMEM supplemented with 2 (w/v) % horse serum (HS) and 1 (w/v) % penicillin-streptomycin-glutamine (2 (w/v) % HS, 1 (w/v) % P/S, 1 (w/v) % Gln/DMEM), and differentiation into myotube cells (Myotubes) was induced. After confirmation of differentiation into myotube cells (Myotubes), a muscle insulin signal evaluation system was constructed, and the action of each of γEV, γEC, and γEVG was evaluated using the constructed evaluation system.
The myotube cells (Myotubes) were cultured overnight (17 hr to 24 hr) at 37° C. in a 0.5 mM palmitic acid (FFA)/0.5 (w/v) % albumin (BSA)/DMEM culture medium in the presence of 5 (v/v) % carbon dioxide.
After culturing overnight, the cells were preincubated for about 2 hr in DMEM (BSA/FFA free), stimulated by incubation (15 min to 20 min) with 100 nM insulin, and the myotube cells were collected (each n=1 to 2). From the collected cells, proteins were extracted with RIPA (Radio-Immunoprecipitation Assay) buffer (Cell Signaling Technologies Inc.), adjusted to a final protein concentration of 0.5 mg/mL, and used as samples.
The expression levels of phosphorylated Akt (pAkt) (Ser473) (#9271S; Cell Signaling Technologies Inc.), and total Akt (#9272S; Cell Signaling Technologies Inc.) in the above-mentioned sample were quantified by the Western blotting (WB) method. The expression level of each protein was quantified using Western blot-chemiluminescent imaging system (Fusion FX) (Vilber-Lourmat Inc.).
Each γ-glutamyl peptide was added simultaneously with FFA, and the muscle quality-improving effect was examined with the recovery of the muscle insulin signal as an index. The final concentration of γEV was adjusted to 100 μM or 300 μM, and the final concentrations of γEC and […] were adjusted to 500 μM. As a positive control, an antioxidative active substance N-acetylcysteine (NAC) 5 mM was used.
From the measurement results of the expression levels of phosphorylated Akt (Ser473) and total Akt, the ratio of phosphorylated Akt and total Akt with insulin stimulation to the ratio of phosphorylated Akt and total Akt without insulin stimulation [(pAkt/Total Akt) Insulin+]/[(pAkt/Total Akt) Insulin-] was determined and shown in FIGS. 1 and 2 as the phosphorylation index (stimulation index). In the Figures, the average values of the calculated phosphorylation indices are shown in bar graphs. The symbols (●, ▪, ▴, ▾, □, Δ, ∇) in the Figures indicate the calculated values of the phosphorylation index obtained for each sample.

[2] = tested on: Sprague-Dawley (SD) male rats; assay: Muscle (tibialis anterior muscle) weight in rats fed a high-fat diet with exercise load; assay type: in vivo, rat; conditions: 0.2 wt % in 30 wt % fat feed plus exercise, 6th week; compared with exercise only group; FIG. 3
Procedure: (§1) Furthermore, the exercise groups (exercise group and exercise+γEV group) were made to perform exercise once a week under the exercise load conditions shown below.
(§2) At the 5th week of feeding the high-fat diet, the exercise function (walking function) was evaluated as follows. At the 6th week of feeding the high-fat diet, an autopsy was performed, and the muscle (tibialis anterior muscle) weight was measured. As described below, the muscle insulin sensitivity was evaluated, the fatty acid composition in muscle diacylglycerol was analyzed, and the muscle function was evaluated.
The exercise was performed using the left leg of the rat by applying a local resistance exercise load. A rat under isoflurane anesthesia was placed in an ankle exercise device for small animals (Bioresearch Center K.K.), a skin stimulation electrode was attached to the tibialis anterior muscle, and contraction was caused by electrical stimulation. At the same time, the tibialis anterior muscle was pulled in the direction opposite to the contraction direction, and an extension load was applied. The exercise load setting conditions are shown below.
(i) contraction (electric) load condition: 4 mA to 5 mA, 100 Hz, 1100 msec
(ii) extension load condition: angle of left leg joint was extended from 90° to 135° at rate=100 deg/sec […]

[3] = tested on: Sprague-Dawley (SD) male rats; assay: Walking function (stride of walking, length and width) in rats fed a high-fat diet; assay type: in vivo, rat; conditions: 0.2 wt % in 30 wt % fat feed plus exercise, 5th week; widening of width and narrowing of length; FIG. 4
Procedure: as §1, §2
The walking function was evaluated by walking the rat without an anesthesia and observing the state of walking. India ink was applied to the plantar part of the both legs of the rat, and the rat was made to walk through a cylindrical tunnel with Japanese writing paper laid therein and the stride of walking (width and length) was measured based on the trace of the right leg and the left leg after walking, and the walking function was evaluated.
The respective measurement or evaluation or analysis results of the above-mentioned (2) to (4) are shown by mean±standard error in FIG. 3 to FIG. 7. […]

[4] = tested on: insulin receptor substrate-1 (IRS-1); assay: Muscle insulin sensitivity (IRS-1 serine phosphorylation activity, Western blotting) in rats fed a high-fat diet; assay type: in vivo, rat; conditions: 0.2 wt % in 30 wt % fat feed plus exercise, 6th week; vs high fat group p<0.01; FIG. 5
Procedure: as §1, §2
As an index of muscle insulin sensitivity, insulin receptor substrate-1 (IRS-1) serine phosphorylation activity was evaluated by a Western blotting (WB) method. […]
As the antibodies, anti-Phospho-IRS-1 (Ser307) antibody (Cell Signaling Technologies Inc.), and anti-total IRS-1 antibody (Cell Signaling Technologies Inc.) were used, the expression levels of Phospho-IRS-1 (Ser307) and total IRS-1 were quantified using Western blot-chemiluminescent imaging system (Fusion FX) (Vilber-Lourmat Inc.).
As an index of insulin sensitivity, the ratio of Phospho-IRS-1 (Ser307) expression level to total IRS-1 expression level [(Phospho-IRS-1 (Ser307))/(total IRS-1)] was determined. […]

[5] = tested on: Sprague-Dawley (SD) male rats; assay: Amount of diacylglycerol and fatty acid composition in muscle diacylglycerol in rats fed a high-fat diet; assay type: in vivo, rat; conditions: 0.2 wt % in 30 wt % fat feed plus exercise, 6th week, vs high fat group p<0.01
Procedure: as §1, §2
The amount of diacylglycerol (DAG) in muscle, which is highly related to muscle insulin sensitivity, was analyzed, and the composition of fatty acid contained in DAG was analyzed.
The fat ingredient in the muscle collected during autopsy was extracted according to a chloroform/methanol method, and the DAG fraction was extracted using thin layer chromatography (TLC). […] DAG was quantified at 600 nm by a colorimetric method.
The DAG fraction after development was extracted by a chloroform/methanol method, and fatty acid in DAG was quantified. As fatty acids, 9 kinds of fatty acids (lauric acid, myristic acid, palmitoleic acid, palmitic acid, linolenic acid, linoleic acid, oleic acid, stearic acid, arachidonic acid) mainly contained in the living body were selected and analyzed using gas chromatography. […]

C57BL/6J mice [6] = assay: Grip strength (muscle strength) of mice under motility limitation; assay type: in vivo, mouse; conditions: 0.2 wt % in feed, narrow cage, 28 days; vs motility limitation+lard ingestion group; FIG. 8
Source text: (§3) Using C57BL/6J mice, the effect of ingestion of γ-glutamyl peptide on the changes in muscle quality and muscle function induced by narrowing the area of the cage used for rearing to limit exercise was investigated.
C57BL/6J mice were grouped into 3 groups shown in Table 2 such that the body weight, grip strength, and lean body weight would be uniform, and one mouse was housed per cage and reared. As cages for rearing mice, a wide cage (width 220 mm×length 320 mm×height 165 mm) and a narrow cage (width 110 mm×length 160 mm×height 130 mm) were used. In addition, as an experimental diet, a diet containing 20 wt % casein and 7 wt % lard or a diet containing 20 wt % casein, 7 wt % lard, and 0.2 wt % γ-glutamyl valine (γEV) was supplied.
After rearing for 28 days under the above-mentioned conditions, the grip strength of each mouse was measured and the muscle strength was evaluated.
The grip strength of the mouse was measured using a grip strength meter for small animals (“Chatillon”, Columbus Instruments). […] The aforementioned grip strength was consecutively measured five times, and the average value was calculated and used as the grip strength value of each individual. […]

C57BL/6J mice [7] = assay: Amount of neutral fat in muscle and palmitic acid in neutral fat in muscle of mice under motility limitation; assay type: in vivo, mouse; conditions: 0.2 wt % in feed, narrow cage, 28 days, vs motility limitation+lard ingestion group
Source text: as §3
C57BL/6J mice were grouped into 3 groups shown in Table 2 such that the body weight, grip strength, and lean body weight would be uniform, and one mouse was housed per cage and reared. As cages for rearing mice, a wide cage (width 220 mm×length 320 mm×height 165 mm) and a narrow cage (width 110 mm×length 160 mm×height 130 mm) were used. […]
After the completion of the above-mentioned grip strength measurement, muscles (gastrocnemius muscles) were collected from the mice in each group, and the amount of neutral fat in the muscle, which is one of the indicators of muscle quality, and the amount of palmitic acid in neutral fat in the muscle were measured.
Fat ingredient was extracted according to a chloroform/methanol method from the collected muscle, and the neutral fat content was measured by a colorimetric method at 600 nm, as well as the neutral fat was fractionated and collected by thin layer chromatography (TLC). […] The neutral fat fraction was extracted again by a chloroform/methanol method, and the composition of the fatty acid in the neutral fat was analyzed, and the amount of palmitic acid was measured. The composition of the fatty acid was analyzed by gas chromatography. […]

[8] = added simultaneously with 0.5 mM FFA, FIG. 2

| SMILES | insulin signal that declined due to FFA [1, 8] | muscle insulin signal increasing action compared with NAC ([1]; 100 μM vs NAC 5 mM, FIG. 2) | muscle insulin signal increasing action compared with NAC ([1]; 300 μM vs NAC 5 mM, FIG. 1) | decline in muscle insulin signal due to FFA (phosphorylation index) ([1]; 300 μM, added simultaneously with 0.5 mM FFA, 100 nM insulin stimulation, FIG. 1) | muscle weight (tibialis anterior muscle, weight ratio to body weight) [2] | stride of walking (length and width) during walking [3] | decline in muscle insulin sensitivity [(Phospho-IRS-1 (Ser307))/(total IRS-1)] [4] | increase in the amount of DAG in skeletal muscle ([5]; FIG. 6) | amount of palmitic acid in muscle DAG ([5]; FIG. 7) | grip strength (C57BL/6J mice [6]) | amount of neutral fat in the muscle (gastrocnemius muscle) (C57BL/6J mice [7]; FIG. 9) | amount of palmitic acid in the neutral fat in the muscle (gastrocnemius muscle) (C57BL/6J mice [7]; FIG. 10) |
| --- | --- | --- | --- | --- | --- | --- | --- | --- | --- | --- | --- | --- |
| N[C@@H](CCC(=O)N[C@@H](CS)C(=O)O)C(=O)O [γEC, γ-L-glutamyl-L-cysteine] | increase the insulin signal |  |  |  |  |  |  |  |  |  |  |  |
| CC(C)[C@H](NC(=O)CC[C@H](N)C(=O)O)C(=O)O [γEV, γ-L-glutamyl-L-valine] |  | superior to that of NAC | equal to or higher than that of NAC | recovered | increase in the muscle weight tended to be promoted | suppressed to the same levels as in the normal group | significantly suppressed | significantly suppressed | significantly lower than in the high fat group | significantly (p<0.05) improved | significantly (p<0.1) small | significantly (p<0.1) small |
| CC(C)[C@H](NC(=O)CC[C@H](N)C(=O)O)C(=O)NCC(=O)O [γEVG, γ-L-glutamyl-L-valylglycine] (γGlu-Val-Gly-OH) | increase the insulin signal |  |  |  |  |  |  |  |  |  |  |  |
